Assay results published in patent US20200352912A1, “ANTIMICROBIAL COMPOSITIONS AND METHODS OF USING THE SAME” (The Board Of Supervisors Of Louisiana State University And …, priority 2018, published 2020).

Tests used:
[1] = test system: clinical MRSA and MSSA strains isolated from a patient's catheter; assay: planktonic antimicrobial assay, clinical isolates; type: cell-based, Staphylococcus aureus
Description: Effect of COX enzyme inhibitors or PGE2 EP receptor antagonists on microbial growth. The antimicrobial activity of selective COX enzyme inhibitor or PGE2 EP receptor antagonist on the growth of C. albicans DAY185 (A), S. aureus NRS383 (B) and MRSA and MSSA clinical isolates (C). Growth of C. albicans and S. aureus was monitored for up to 24 h in medium alone or supplemented with DMSO or EP receptor antagonists or COX enzyme inhibitor at physiologically relevant concentrations. Data shown are representative of three independent experiments.
Strains and growth conditions. The methicillin-resistant S. aureus strain NRS383 used in all experiments was obtained from the Network on Antimicrobial Resistance in S. aureus (NARSA) data bank. NRS383 is positive for the toxic shock syndrome toxin (tst) and 6-toxin genes. SJ-MRSA 6 and SJ-SA5 are methicillin-resistant (MRSA) and methicillin-sensitive (MSSA) clinical S. aureus strains respectively isolated from a patient's catheter. […]
C. albicans and S. aureus were grown as described above. […] Cells were grown with shaking as described above, and 1 ml aliquots were removed each hour in duplicate and optical density at 600 nm measured (OD600) by spectrophotometer (Biomate 3S, Thermo Scientific).

planktonic S. aureus = assay: MIC/MBC assay (CLSI broth dilution); type: cell-based; settings: Staphylococcus aureus
Description: The CLSI reference method for broth dilution antimicrobial susceptibility testing of bacteria was used to determine the MIC of L-161, 982 (CLSI, 2008). Based on inhibition of S. aureus in the planktonic assay, TSB was used for all antimicrobial susceptibility testing of S. aureus. Cells were diluted in sterile TSB to a final concentration of 5.0×10^5 CFU/ml and 200-μl aliquots (1×10^5 CFU/well) were added to wells of sterile round-bottom 96-well plates. A stock solution of L-161, 982 was diluted in sterile TSB prior to addition to cells. Drug concentrations tested ranged from 1 to 100 μg/ml and were tested in triplicate. The plates were incubated at 37° C. for 24 h and the OD600 measured using a microplate spectrophotometer (BioTek Instruments, Synergy 2). Bacteriostatic or bactericidal activity was assessed by plating 20 μl of broth from all wells with no visible growth on TSA plates and plates incubated at 37° C. for 24-48 h. The MBC was the lowest drug concentration that prevented growth.

S. aureus = assay: generation of hydroxyl radicals (thiourea scavenger); type: cell-based, Staphylococcus aureus; settings: 50 μg/ml, 150 mM thiourea
Description: (A) Effects of reactive oxygen species inhibitors. Growth of S. aureus was monitored for up to 6 h in medium alone or medium supplemented with 15 mM of Na-L-ascorbate, and/or 15 mM N-acetyl-L-cysteine, and/or 50 μg/ml L-161, 982. Data shown are representative of two independent experiments. (B) Effects of hydroxyl radical scavengers. Growth was monitored for 4 h in medium alone or medium supplemented with 50 μg/ml L-161, 982 or 1 mM H2O2 alone, plus 150 mM thiourea, or plus 500 μM 2,2′-dipyridyl.
Generation of hydroxyl radicals. Antibiotic induced hydroxyl radical production was measured as previously described (12). Overnight cultures of S. aureus were diluted 1:100 in TSB and grown for 3 h at 37° C. with shaking to mid-log phase. Cultures were diluted in TSB to OD600=0.05 and L-161, 982 was added at a final concentration of 50 µg/ml+/−H2O2 (1 mM; Sigma) or thiourea (150 mM; Sigma). Cultures were incubated at 37° C. with shaking and aliquots were removed at t(0) and at 1 h intervals duplicate, diluted 1:100 and optical density measured at 600 nm (OD600) or serially diluted and plated onto SDA and grown at 37° C. for 24 h for CFU enumeration.

human EP4 receptors = human EP4 receptors (Homo sapiens, UniProt P35408); settings: cited from earlier work
EP3 = EP3 (Homo sapiens, UniProt P43115); settings: cited from earlier work
DP = DP (Homo sapiens, UniProt Q13258); settings: cited from earlier work
IP = IP (Homo sapiens, UniProt P43119); settings: cited from earlier work
[2] = test system: PGE2-stimulated bone formation; settings: 10 mg/kg/day, young rats; cited from earlier work

Sequence of human EP4 receptors (P35408 whole entry): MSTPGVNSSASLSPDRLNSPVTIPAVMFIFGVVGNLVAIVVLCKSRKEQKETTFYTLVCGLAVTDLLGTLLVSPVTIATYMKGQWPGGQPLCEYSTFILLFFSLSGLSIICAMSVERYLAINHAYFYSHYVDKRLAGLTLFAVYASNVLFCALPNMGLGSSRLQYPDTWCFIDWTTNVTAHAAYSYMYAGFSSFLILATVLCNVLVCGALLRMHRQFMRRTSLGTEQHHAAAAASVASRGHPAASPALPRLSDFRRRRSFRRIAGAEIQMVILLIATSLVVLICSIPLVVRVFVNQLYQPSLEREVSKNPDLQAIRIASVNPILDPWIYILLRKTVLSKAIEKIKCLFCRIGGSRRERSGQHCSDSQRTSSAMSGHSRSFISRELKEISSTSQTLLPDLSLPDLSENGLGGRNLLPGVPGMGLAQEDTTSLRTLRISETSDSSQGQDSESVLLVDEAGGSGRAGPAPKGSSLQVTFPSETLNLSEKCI
Sequence of DP (Q13258 whole entry): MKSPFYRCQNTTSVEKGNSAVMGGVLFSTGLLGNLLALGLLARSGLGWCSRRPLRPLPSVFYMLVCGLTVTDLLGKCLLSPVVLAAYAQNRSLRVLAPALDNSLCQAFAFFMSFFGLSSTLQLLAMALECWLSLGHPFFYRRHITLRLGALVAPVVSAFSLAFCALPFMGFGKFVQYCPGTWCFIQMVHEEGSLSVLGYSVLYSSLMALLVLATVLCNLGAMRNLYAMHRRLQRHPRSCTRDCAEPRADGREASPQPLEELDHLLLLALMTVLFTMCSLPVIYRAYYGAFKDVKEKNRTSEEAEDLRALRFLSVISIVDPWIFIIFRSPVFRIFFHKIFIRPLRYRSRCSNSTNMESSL
Sequence of IP (P43119 whole entry): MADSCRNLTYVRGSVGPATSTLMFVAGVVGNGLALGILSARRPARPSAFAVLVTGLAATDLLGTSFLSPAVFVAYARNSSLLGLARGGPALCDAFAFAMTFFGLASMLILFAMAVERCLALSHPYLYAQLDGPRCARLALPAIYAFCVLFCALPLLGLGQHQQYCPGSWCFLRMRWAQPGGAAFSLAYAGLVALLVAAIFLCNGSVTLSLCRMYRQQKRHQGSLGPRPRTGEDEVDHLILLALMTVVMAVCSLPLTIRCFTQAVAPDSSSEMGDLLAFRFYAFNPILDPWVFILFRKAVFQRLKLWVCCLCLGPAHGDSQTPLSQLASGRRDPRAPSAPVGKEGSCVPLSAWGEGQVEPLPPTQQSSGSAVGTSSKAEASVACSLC
Sequence of EP3 (P43115 whole entry): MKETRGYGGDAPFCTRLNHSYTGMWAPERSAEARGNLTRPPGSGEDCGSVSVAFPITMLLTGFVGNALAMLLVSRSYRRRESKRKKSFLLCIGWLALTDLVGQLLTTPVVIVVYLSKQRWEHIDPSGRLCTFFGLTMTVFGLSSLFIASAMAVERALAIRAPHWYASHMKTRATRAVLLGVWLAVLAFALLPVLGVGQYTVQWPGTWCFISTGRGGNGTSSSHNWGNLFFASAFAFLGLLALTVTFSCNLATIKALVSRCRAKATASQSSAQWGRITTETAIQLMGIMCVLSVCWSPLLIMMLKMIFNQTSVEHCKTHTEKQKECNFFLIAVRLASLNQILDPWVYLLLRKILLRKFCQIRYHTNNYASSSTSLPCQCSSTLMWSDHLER

**Q.** For `CCCCc1nn(-c2ccccc2C(F)(F)F)c(=O)n1Cc1ccc(-c2ccccc2S(=O)(=O)NC(=O)c2sccc2C)cc1` [L-161, 982, N-[[4′-[[3-Butyl-1,5-dihydro-5-oxo-1-[2-(trifluoromethyl)phenyl]-4H-1,2,4-triazol-4-yl]methyl][1,1′-biphenyl]-2-yl]sulfonyl]-3-methyl-2-thiophenecarboxamide], which “growth of clinical MRSA and MSSA strains” value [1] is on record?
**A.** inhibited growth

**Q.** What about the MBC (planktonic S. aureus) of the same molecule?
**A.** 100 µg/mL

**Q.** And the MIC (planktonic S. aureus; TSB, 24 h, read-out: minimum inhibitory concentration (MIC))?
**A.** 50 µg/mL

**Q.** And the “effect of thiourea on growth inhibition” value (S. aureus)?
**A.** did not alleviate

**Q.** And the Ki (human EP4 receptors)?
**A.** 0.024 µM

**Q.** And the Ki (EP3)?
**A.** 1.9 µM

**Q.** And the Ki (DP)?
**A.** 5.1 µM

**Q.** And the Ki (IP)?
**A.** 6.7 µM

**Q.** What about the “effect on PGE2-stimulated bone formation” value [2] of the same molecule?
**A.** suppresses
